Target: PolQ ATPase enzyme (1-894) (Homo sapiens (Human), UniProt O75417)
Test: Polθ ATPase enzymatic assay (0.5 nM enzyme concentration), ADP-Glo
Assay type: biochemical
Settings: average IC50; 0.5 nM PolQ ATPase enzyme (1-894)
Procedure: PolQ ATPase enzyme (1-894) at 0.5 nM is incubated with a 10-point concentration response of inhibitors for 15 min at rt in the following buffer: 50 mM Tris Cl pH 7.5, 10% glycerol, 5 mM DTT, 10 mM MgCl2, 0.1 mg/ml BSA. Following pre-incubation with inhibitors, DNA (Fork C) at 20 nM and ATP at 100 μM are added to start the reaction. Enzymatic reaction proceeds at rt for 180 min ATP consumption is measured using the ADP-Glo assay from Promega. Luminescence is read on the Envision and IC50 are determined using the variable slope 4-parameters equation.
Oligos are annealed by heating at 9500 for 5 min in the following buffer (10 mM Tris-HCl pH7.5, 50 mM NaCl, 1 mM EDTA) and cooled to rt. […]

Chain of PolQ ATPase enzyme (1-894) (O75417 1-894): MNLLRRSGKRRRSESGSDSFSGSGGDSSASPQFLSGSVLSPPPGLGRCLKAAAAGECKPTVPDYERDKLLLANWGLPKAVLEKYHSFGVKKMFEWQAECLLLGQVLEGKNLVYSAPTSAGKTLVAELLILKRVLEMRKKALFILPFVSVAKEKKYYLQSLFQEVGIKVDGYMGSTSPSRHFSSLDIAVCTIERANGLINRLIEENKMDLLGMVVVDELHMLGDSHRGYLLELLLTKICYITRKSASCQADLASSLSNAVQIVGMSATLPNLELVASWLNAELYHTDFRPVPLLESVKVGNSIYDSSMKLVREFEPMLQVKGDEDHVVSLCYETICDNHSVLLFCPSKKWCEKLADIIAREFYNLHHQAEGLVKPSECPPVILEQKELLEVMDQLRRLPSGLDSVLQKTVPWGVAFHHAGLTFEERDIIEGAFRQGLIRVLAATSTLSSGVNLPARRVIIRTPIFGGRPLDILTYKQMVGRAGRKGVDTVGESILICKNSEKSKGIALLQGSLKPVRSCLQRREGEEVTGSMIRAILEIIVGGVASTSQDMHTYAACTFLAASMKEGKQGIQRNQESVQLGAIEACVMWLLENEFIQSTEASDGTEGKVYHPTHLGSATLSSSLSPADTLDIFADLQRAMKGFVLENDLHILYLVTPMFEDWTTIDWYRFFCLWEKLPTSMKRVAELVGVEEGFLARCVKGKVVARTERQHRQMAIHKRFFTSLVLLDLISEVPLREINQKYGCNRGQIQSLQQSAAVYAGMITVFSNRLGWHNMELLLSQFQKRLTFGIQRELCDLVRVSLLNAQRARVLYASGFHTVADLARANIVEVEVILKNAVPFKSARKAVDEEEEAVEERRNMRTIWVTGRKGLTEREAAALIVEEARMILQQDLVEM

| IC50 [nM] | Structure (SMILES) |
| --- | --- |
| 0.53 | COc1cnc(C(F)F)cc1-c1cc(-c2ccn(C)n2)ncc1C(=O)Nc1nnc(C#CC2CC2)s1 [Compound 113, N-(5-(cyclopropylethynyl)-1,3,4-thiadiazol-2-yl)-2′-(difluoromethyl)-5′-methoxy-6-(1-methyl-1H-pyrazol-3-yl)-[4,4′-bipyridine]-3-carboxamide] |
| < 0.25 | COc1cnc(C(F)F)cc1-c1cc(N2CCNCC2=O)ccc1C(=O)Nc1nnc(C#CC2CC2)s1 [Compound 143] |
| < 0.25 | COc1cnc(C(F)F)cc1-c1cc(-n2cc(F)c(C)cc2=O)ncc1C(=O)Nc1nnc(C#CC2CC2)s1 [Compound 414] |
| 2.5 | COc1cnc(C)cc1-c1cnccc1C(=O)Nc1nnc(C#CC2CC2)s1 [Compound 70] |
| 1.9 | COc1cnc(C(F)F)cc1-c1cc(C2C[C@@H]2C(=O)N(C)C)ncc1C(=O)Nc1nnc(C#CC2CC2)s1 (stereo partly drawn) [Compound 361] |
| 3.4 | COc1cnc(Cl)cc1-c1cn(CC(=O)N2CCOCC2)c(=O)cc1C(=O)Nc1nnc(C#CC2CC2)s1 [Compound 347] |
| < 0.25 | COc1cnc(C(F)F)cc1-c1cc(N(C)C(C)=O)ccc1C(=O)Nc1nnc(C#CC2CC2)s1 [Compound 276] |
| 0.29 | COc1cnc(C(F)F)cc1-c1cc(-n2ccnc2)ncc1C(=O)Nc1nnc(C#CC2CC2)s1 [Compound 262] |
| 0.27 | COc1cnc(Cl)cc1-c1cc(N2CCCC2=O)ccc1C(=O)Nc1nnc(C#CC2CC2)s1 [Compound 39] |
| < 0.25 | COc1cnc(C(F)F)cc1-c1cc(CC(=O)N(C)C)ncc1C(=O)Nc1nnc(C#CC2CC2)s1 [Compound 245] |
| 1.4 | [2H]C([2H])([2H])N(C(=O)C1CCOC1)c1ccc(C(=O)Nc2nnc(C#CC3CC3)s2)c(-c2cc(C(F)F)ncc2OC)c1 (stereo not drawn) [Compound 229] |
| < 0.25 | Cc1cc(C#Cc2nnc(NC(=O)c3ccncc3-c3cc(Cl)ncc3OC(F)F)s2)n[nH]1 [Compound 106] |
| < 0.25 | CNC(=O)Cn1cc(-c2cc(C(F)(F)F)ccc2OC)c(C(=O)Nc2nnc(C#Cc3cc(C)[nH]n3)s2)cc1=O [Compound 82] |
| < 0.25 | COc1cnc(C(F)F)cc1-c1cc(C2C[C@H]2C(=O)N(C)C)ccc1C(=O)Nc1nnc(C#CC2CC2)s1 (stereo partly drawn) [Compound 363] |
| < 0.25 | Cc1ccn(-c2cc(-c3cc(C(F)F)ncc3Cl)c(C(=O)Nc3nnc(C#CC4CC4)s3)cn2)c(=O)c1 [Compound 448] |
| 0.34 | COc1cnc(C(F)F)cc1-c1cc(-c2nnc(C)o2)ccc1C(=O)Nc1nnc(C2C[C@H]2c2ccc(C#N)cc2)s1 (stereo partly drawn) [Compound 168] |
| 0.6 | CN(C)C(=O)Cn1cc(-c2cc(F)ccc2Cl)c(C(=O)Nc2nnc(C#CC3CC3)s2)cc1=O [Compound 66] |
| < 0.25 | COc1cnc(C(F)F)cc1-c1cc(-c2cnn(C(F)F)c2)ncc1C(=O)Nc1nnc(C#CC2CC2)s1 [Compound 349] |
| 0.35 | COc1cnc(Cl)cc1-c1cc(Oc2nccs2)ccc1C(=O)Nc1nnc(C#CC2CC2)s1 [Compound 302] |
| < 0.25 | COc1cnc(Cl)cc1-c1cc(C#CC2(O)COC2)ccc1C(=O)Nc1nnc(C#CC2CC2)s1 [Compound 54] |

| IC50 [nM] | Structure (SMILES) |
| --- | --- |
| 0.66 | COc1cnc(Cl)cc1-c1cn(C)c(=O)cc1C(=O)Nc1nnc(C#CC2CC2)s1 [Compound 32, 2′-chloro-N-(5-(cyclopropylethynyl)-1,3,4-thiadiazol-2-yl)-5′-methoxy-1-methyl-6-oxo-1,6-dihydro-[3,4′-bipyridine]-4-carboxamide] |
| 0.56 | COc1cnc(C(F)F)cc1-c1cc(NC(C)=O)ccc1C(=O)Nc1nnc(C#CC2CC2)s1 [Compound 225] |
| < 0.25 | COc1cnc(C(F)F)cc1-c1cc(-n2ccncc2=O)ccc1C(=O)Nc1nnc(C#CC2CC2)s1 [Compound 163] |
| < 0.25 | COc1cnc(C(F)F)cc1-c1cc(CC(=O)N2CC(F)(F)C2)ncc1C(=O)Nc1ncc(C#CC2CC2)s1 [Compound 447] |
| < 0.25 | COc1cnc(C(F)F)cc1-c1cc(CC(=O)N2CCOCC2)ccc1C(=O)Nc1nnc(C#CC2CC2)s1 [Compound 228] |
| < 0.25 | COc1cnc(C(F)F)cc1-c1cc(N2CC(=O)N(C)C3(CC3)C2=O)ncc1C(=O)Nc1nnc(C#CC2CC2)s1 [Compound 469] |
| 0.25 | CNC(=O)Cn1cc(-c2cc(C(F)(F)F)ccc2OC)c(C(=O)Nc2nnc(C3CC3c3ccc(C#N)cc3)s2)cc1=O (stereo not drawn) [Compound 92] |
| 8.5 | COc1cnc(C(F)F)cc1-c1cc(N(C)Cc2cnn(C)c2)ccc1C(=O)Nc1nnc(C#CC2CC2)s1 [Compound 136] |
| 6.2 | CCc1nn(C)cc1-c1cc(-c2ccn(C)n2)ncc1C(=O)Nc1nnc(C#CC2CC2)s1 [Compound 433] |
| < 0.25 | COc1cnc(C(F)F)cc1-c1cc(-c2nc(C)co2)ncc1C(=O)Nc1nnc(C#CC2CC2)s1 [Compound 430] |
| < 0.25 | COc1cnc(C(F)F)cc1-c1cc(-c2noc(C)n2)ncc1C(=O)Nc1nnc(C#CC2CC2)s1 [Compound 428] |
| 1.1 | COc1cnc(C(F)F)cc1-c1cnccc1C(=O)Nc1nnc([C@@H]2C[C@H]2c2ccc(C#N)cc2)s1 [Compound 303] |
| 0.26 | COc1cnc(C(F)F)cc1-c1cc(N2CCN(C(=O)OC(C)(C)C)CC2=O)ccc1C(=O)Nc1nnc(C#CC2CC2)s1 [Compound 144] |
| < 0.25 | COc1cnc(C(F)F)cc1-c1cc(-n2cccc(C(F)(F)F)c2=O)ncc1C(=O)Nc1nnc(C#CC2CC2)s1 [Compound 456] |
| 15 | CNc1ccc(C(=O)Nc2nnc(C#CC3CC3)s2)c(-c2cc(C(F)F)ncc2OC)c1 [Compound 243] |
| 0.93 | COc1cnc(C(F)F)cc1-c1cc(OC[C@@H]2CCOC2)ncc1C(=O)Nc1nnc(C#CC2CC2)s1 [Compound 148] |
| 4.5 | C#C[C@@H]1CC1c1nnc(NC(=O)c2ccncc2-c2cc(C(F)F)ncc2OC)s1 (stereo partly drawn) [Compound 323] |
| 0.46 | COc1cnc(C(F)F)cc1-c1cc(N2C(=O)COCC2C)ncc1C(=O)Nc1nnc(C#CC2CC2)s1 (stereo not drawn) [Compound 400] |
| 1.21 | COc1cnc(C2CC2)cc1-c1cnccc1C(=O)Nc1nnc(C#CC2CC2)s1 [Compound 79] |
| < 0.25 | COc1cnc(C(F)F)cc1-c1cc(OCC2CCOCC2)ncc1C(=O)Nc1nnc(C#CC2CC2)s1 [Compound 150, N-(5-(cyclopropylethynyl)-1,3,4-thiadiazol-2-yl)-2′-(difluoromethyl)-5′-methoxy-6-((tetrahydro-2H-pyran-4-yl)methoxy)-[4,4′-bipyridine]-3-carboxamide] |

| IC50 [nM] | Structure (SMILES) |
| --- | --- |
| < 0.25 | COc1ccc(C(F)(F)F)cc1-c1cc(Cl)ncc1C(=O)Nc1nnc(C#CC2CC2)s1 [Compound 41] |
| 0.45 | COc1cnc(C(F)F)cc1-c1cc(C#N)ccc1C(=O)Nc1nnc(C#CC2CC2)s1 [Compound 251] |
| < 0.25 | Cc1nnc(-n2cc(-c3cc(C(F)(F)F)ccc3Cl)c(C(=O)Nc3nnc(C#CC4CC4)s3)cc2=O)o1 [Compound 429] |
| < 0.25 | COc1cnc(C(F)F)cc1-c1cc(N2CCO[C@@H](C)C2=O)ncc1C(=O)Nc1nnc(C#CC2CC2)s1 [Compound 174] |
| 4 | COc1cnc(C(F)F)cc1-c1cc(N2CCN(C)C(=O)C2)ncc1C(=O)Nc1nnc(C#CC2CC2)s1 [Compound 128] |
| < 0.25 | COc1cnc(C(F)F)cc1-c1cc(-n2ncc(C)cc2=O)ncc1C(=O)Nc1nnc(C#CC2CC2)s1 [Compound 435] |
| 0.73 | Cn1cc(-c2cc(Cl)ncc2OC(F)F)c(C(=O)Nc2nnc(C#CC3CC3)s2)cc1=O [Compound 74] |
| < 0.25 | COc1cnc(C(F)F)cc1-c1cc(-c2cn(C)cn2)ccc1C(=O)Nc1nnc(C#CC2CC2)s1 [Compound 201] |
| < 0.25 | COc1cnc(Cl)cc1-c1cc(C#N)ccc1C(=O)Nc1nnc(C#CC2CC2)s1 [Compound 40] |
| < 0.25 | COC(=O)N1CCN(c2ccc(C(=O)Nc3nnc(C#CC4CC4)s3)c(-c3cc(C(F)F)ncc3OC)c2)C(=O)C1 [Compound 123] |
| < 0.25 | COc1ccc(F)cc1-c1cnccc1C(=O)Nc1nnc(C#Cc2cc(C#N)[nH]n2)s1 [Compound 101] |
| < 0.25 | COC(=O)N1CCN(c2cc(-c3cc(C(F)F)ncc3OC)c(C(=O)Nc3nnc(C#CC4CC4)s3)cn2)C(=O)C1 [Compound 358] |
| < 0.25 | COc1cnc(C(F)F)cc1-c1cc(-c2nnc(C)o2)ccc1C(=O)Nc1nnc(C#Cc2cc(C)[nH]n2)s1 [Compound 153] |
| < 0.25 | COc1ccc(C(F)(F)F)cc1-c1cc(C#CC(C)O)ncc1C(=O)Nc1nnc(C#CC2CC2)s1 (stereo not drawn) [Compound 248] |
| 0.76 | COc1cnc(Cl)cc1-c1cn(C)c(=O)cc1C(=O)Nc1nnc(C#CC2CC23CC3)s1 (stereo not drawn) [Compound 107] |
| 0.43 | COc1cnc(C(F)F)cc1-c1cc(N2CCCN(C)CC2=O)ncc1C(=O)Nc1nnc(C#CC2CC2)s1 [Compound 441] |
| < 0.25 | COc1cnc(C(F)F)cc1-c1cc(N2CCN(C)C3(CC3)C2=O)ncc1C(=O)Nc1nnc(C#CC2CC2)s1 [Compound 432, N-(5-(cyclopropylethynyl)-1,3,4-thiadiazol-2-yl)-2′-(difluoromethyl)-5′-methoxy-6-(4-methyl-8-oxo-4,7-diazaspiro[2.5]octan-7-yl)-[4,4′-bipyridine]-3-carboxamide] |
| < 0.25 | COc1cnc(C(F)F)cc1-c1cc(CC(=O)N(C)C)ccc1C(=O)Nc1nnc(C#CC2CC2)s1 [Compound 265] |
| 61 | COc1cnc(C(F)F)cc1-c1cc(-c2ccn(C)n2)cnc1C(=O)Nc1ncc(C#CC2CC2)s1 [Compound 139, N-(5-(cyclopropylethynyl)thiazol-2-yl)-2′-(difluoromethyl)-5′-methoxy-5-(1-methyl-1H-pyrazol-3-yl)-[3,4′-bipyridine]-2-carboxamide] |
| 1.6 | COc1cnc(C(F)F)cc1-c1cc(N2CC3(CC(C(=O)N(C)C)C3)C2)ncc1C(=O)Nc1nnc(C#CC2CC2)s1 [Compound 129] |

Source: patent US20250026748A1, “N-(5-SUBSTITUTED-[(1,3,4-THIADIAZOLYL) OR (THIAZOLYL)])(SUBSTITUTED)CARBOXAMIDE COMPOUNDS AND USE THEREOF FOR INHIBITING HUMAN POLYMERASE THETA” (Repare Therapeutics Inc., priority 2021, published 2025)
